# Where two headings read alike, the source gives them in different places.
# Columns and labels:
# MDCK-hOCT1 cells = assay: MTT drug sensitivity assay in MDCK-hOCT1 cells; assay type: cell-based, canine; conditions: read-out: IC50 MDCK-hOCT1
# Procedure: (§1) Cytotoxicity of the platinum-based compounds was measured by MTT (thiazolyl blue tetrazolium bromide) assay. Cells were seeded in 100 μl of the culture medium without any antibiotics in 96-well plates at a predetermined cell density. For HEK 293 cells, poly-D-lysine coated plates were used. […] For the OCT inhibitor studies, the inhibitors (i.e., disopyramide or cimetidine) were added to the medium at a specified concentration immediately before the addition of the platinum-based compounds. After incubation for a specified time period, the drug-containing medium was replaced with fresh, drug-free medium and the incubation was continued for a total of 72 hours (start from the addition of platinum-based compounds). Then, the MTT assay was performed similarly as described in Alley et al., Cancer Res., 48:589-601 (1988). […] The maximal cell growth was the cell growth in the medium without any platinum-based compounds; C is the concentration of the platinum-based compound, and γ is the slope factor.
# (§2) Briefly, the cells were seeded in 96-well plates at a density of 5,000 cells/well for the transfected MDCK cells or 12,000 cells/well for the transfected HEK 293 cells. The platinum-based drugs were added on the following day. After the specified time periods of drug exposure, the drug-containing medium was replaced with fresh, drug-free medium, and the incubation was continued for a total of 72 hours (start from the time when the drug was added). After incubation, the cell growth was determined by an MTT assay. Data are expressed as mean±SD from 3 to 6 independent experiments with each performed in quadruplicate. The resistance factor (RF) was defined as the ratio of the mean IC50 value in the MOCK cells to that in the OCT-transfected cells.
# (§3) Briefly, MDCK cells were seeded at a density of 5,000 cells/well in 96-well plates and exposed to the test compounds for 7 hours on the following day. After incubation for a total of 72 hours, the cell growth was determined by an MTT assay. The data for carboplatin was taken from Table 1 and was not determined simultaneously with the other compounds. The resistance factor (RF) was defined as the ratio of the mean IC50 value in MDCK-MOCK cells to that in MDCK-hOCT1 cells. Data are expressed as mean±SD from six measurements, and each measurement was performed in quadruplicate.
# MDCK-MOCK cells = assay: MTT drug sensitivity assay in MDCK-MOCK cells; assay type: cell-based, canine; conditions: read-out: IC50 MDCK-MOCK
# Procedure: (§4) Cytotoxicity of the platinum-based compounds was measured by MTT (thiazolyl blue tetrazolium bromide) assay. Cells were seeded in 100 μl of the culture medium without any antibiotics in 96-well plates at a predetermined cell density. For HEK 293 cells, poly-D-lysine coated plates were used. After overnight incubation, the platinum-based compounds were then added to the culture medium to give the indicated final concentrations. For the OCT inhibitor studies, the inhibitors (i.e., disopyramide or cimetidine) were added to the medium at a specified concentration immediately before the addition of the platinum-based compounds. After incubation for a specified time period, the drug-containing medium was replaced with fresh, drug-free medium and the incubation was continued for a total of 72 hours (start from the addition of platinum-based compounds). Then, the MTT assay was performed similarly as described in Alley et al., Cancer Res., 48:589-601 (1988). […] The maximal cell growth was the cell growth in the medium without any platinum-based compounds; C is the concentration of the platinum-based compound, and γ is the slope factor.
# as §2, §3
# DLD = assay: MTT drug sensitivity, colon cancer cell line DLD; assay type: cell-based, human
# Procedure: as §1
# (§5) The cell seeding density was 6,000-, 8,000-, 6,000-, 15,000-12,000- and 4,000 cells/well for HCT116, HT29, RKO, SW620, LS180, and DLD cells, respectively. When cimetidine (1.5 mM) was used, it was added to the wells immediately before the addition of the platinum-based drugs. The resistance factor (RF) was defined as the ratio of the mean IC50 value in the presence to that in the absence of cimetidine. Data are expressed as mean±SD from six measurements, and each measurement was performed in quadruplicate.
# RKO = assay: MTT drug sensitivity, colon cancer cell line RKO; assay type: cell-based, human
# Procedure: as §1, §5
# LS180 = assay: MTT drug sensitivity, colon cancer cell line LS180; assay type: cell-based, human
# Procedure: as §1, §5
# HEK-MOCK cells [1] = assay: MTT drug sensitivity assay in HEK-MOCK cells (control of HEK-hOCT2); assay type: cell-based, human; conditions: drug exposure 7 hour; Table 2; read-out: IC50 HEK-MOCK
# Procedure: as §4, §2
# HEK-hOCT2 cells = assay: MTT drug sensitivity assay in HEK-hOCT2 cells; assay type: cell-based, human; conditions: drug exposure 7 hour; read-out: IC50 HEK-hOCT2
# Procedure: as §1, §2
# HEK-MOCK cells [2] = assay: MTT drug sensitivity assay in HEK-MOCK cells (control of HEK-hOCT3); assay type: cell-based, human; conditions: drug exposure 7 hour; Table 3
# Procedure: as §4, §2
# HCT116 = assay: MTT drug sensitivity, colon cancer cell line HCT116; assay type: cell-based, human
# Procedure: as §1, §5
# HEK-hOCT3 cells = assay: MTT drug sensitivity assay in HEK-hOCT3 cells; assay type: cell-based, human; conditions: drug exposure 7 hour
# Procedure: as §1, §2
# SW620 = assay: MTT drug sensitivity, colon cancer cell line SW620; assay type: cell-based, human
# Procedure: as §1, §5
# HT29 = assay: MTT drug sensitivity, colon cancer cell line HT29; assay type: cell-based, human
# Procedure: as §1, §5
# [3] = tested on: six colon cancer cell lines; assay: MTT drug sensitivity, summary over the six colon cancer cell lines; assay type: cell-based, human
# Procedure: as §1
# The resistance factor (RF) due to the presence of cimetidine was defined as the ratio of the IC50 value in the presence of cimetidine to that in the absence of cimetidine.
# as §5
# [4] = SAR study Table 4, 7 hours of drug exposure
# [5] = drug exposure 7 hour, MTT at 72 hours, Table 1
# [6] = absence of cimetidine, read-out: IC50 Control
# [7] = cimetidine 1.5 mM, read-out: IC50 Cimetidine-treated
compound,measurement,setting,value
"[Pt(NH3)2(trans-1,2-(OCO)2C6H10)] [[Pt(NH3)2(trans-1,2-(OCO)2C6H10]]",IC50,MDCK-hOCT1 cells; [4],10.8 ± 2.66 µM
same,IC50,MDCK-MOCK cells; [4],21.4 ± 2.94 µM
N.NC1CCCCC1.[Cl][Pt][Cl] [cis-[Pt(NH3)(Cy)Cl2]],IC50,MDCK-hOCT1 cells; [4],0.16 ± 0.03 µM
same,IC50,MDCK-MOCK cells; [4],1.42 ± 0.15 µM
NCCN.[Cl][Pt][Cl] [[Pt(Cl2)(en)]],IC50,MDCK-hOCT1 cells; [4],10.2 ± 4.76 µM
same,IC50,MDCK-MOCK cells; [4],33.2 ± 11.5 µM
N.N.[Cl][Pt][Cl] [cisplatin],IC50,MDCK-hOCT1 cells; [4],3.58 ± 0.3 µM
same,IC50,MDCK-hOCT1 cells; [5],15.4 ± 2.84 µM
same,IC50,DLD; [6],18.4 ± 7.58 µM
same,IC50,DLD; [7],32.3 ± 10.3 µM
same,IC50,RKO; [6],8.58 ± 2.38 µM
same,IC50,RKO; [7],12.5 ± 4.44 µM
same,IC50,"LS180; LS180, absence of cimetidine, read-out: IC50 Control",5.72 ± 1.75 µM
same,IC50,"LS180; LS180, cimetidine 1.5 mM, read-out: IC50 Cimetidine-treated",8.27 ± 3.35 µM
same,IC50,HEK-MOCK cells [1],2.95 ± 0.23 µM
same,IC50,HEK-hOCT2 cells,1.32 ± 0.18 µM
same,IC50,HEK-MOCK cells [2],2.83 ± 0.9 µM
same,IC50,MDCK-MOCK cells; [4],6.32 ± 0.74 µM
same,IC50,MDCK-MOCK cells; [5],19.6 ± 7.56 µM
same,IC50,"HCT116; HCT116, absence of cimetidine, read-out: IC50 Control",5.42 ± 1.34 µM
same,IC50,"HCT116; HCT116, cimetidine 1.5 mM, read-out: IC50 Cimetidine-treated",10.2 ± 3.23 µM
same,IC50,HEK-hOCT3 cells,2.44 ± 0.71 µM
same,IC50,"SW620; SW620, absence of cimetidine, read-out: IC50 Control",12.6 ± 1.95 µM
same,IC50,"SW620; SW620, cimetidine 1.5 mM, read-out: IC50 Cimetidine-treated",22.2 ± 4.92 µM
same,IC50,"HT29; HT29, absence of cimetidine, read-out: IC50 Control",12.4 ± 3.91 µM
same,IC50,"HT29; HT29, cimetidine 1.5 mM, read-out: IC50 Cimetidine-treated",30.8 ± 11 µM
same,IC50,"[3]; absence of cimetidine, read-out: mean±SE of IC50 in the six cell lines, control",10.5 ± 2.02 µM
same,IC50,"[3]; cimetidine 1.5 mM, read-out: mean±SE of IC50 in the six cell lines, in the presence of cimetidine",19.4 ± 4.32 µM
